The text below walks through data of patent US12071414B2, “Apelin receptor agonists and methods of use thereof” (Sanford Burnham Prebys Medical Discovery Institute, priority 2015, dated 2024).

Some results are limits rather than exact numbers.

For this experiment, the target named is T1, human apelin receptor (APJ, AGTRL-one, APLNR) (Homo sapiens, UniProt P35414).
T1 construct: host or cells: Chinese hamster ovary cells, stably integrated receptor
T1 sequence (P35414 1-380): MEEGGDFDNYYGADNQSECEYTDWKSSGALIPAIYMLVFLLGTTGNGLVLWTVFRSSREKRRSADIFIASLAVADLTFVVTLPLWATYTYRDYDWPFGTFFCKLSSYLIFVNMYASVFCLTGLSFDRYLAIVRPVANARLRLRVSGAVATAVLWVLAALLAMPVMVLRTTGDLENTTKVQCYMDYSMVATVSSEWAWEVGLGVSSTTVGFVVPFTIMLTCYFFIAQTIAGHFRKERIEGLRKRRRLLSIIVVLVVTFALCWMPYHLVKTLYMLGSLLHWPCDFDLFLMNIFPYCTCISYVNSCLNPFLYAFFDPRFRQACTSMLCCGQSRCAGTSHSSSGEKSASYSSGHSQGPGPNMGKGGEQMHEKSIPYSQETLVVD
As to the kind of experiment: cell-based cAMP TR-FRET assay of apelin receptor activation. The note with it: CHO cells expressing human APJ, forskolin-stimulated cAMP, 0.5 h incubation, 50% of control (apelin-13, 1 nM) response; read-out: Potency Category (EC50). The essentials: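 CHO cells stably expressing human APJ were stimulated to raise cAMP, then incubated 0.5 h with compound (0.0-100 μM, ≤1% DMSO). Lysed cAMP measured by competitive TR-FRET immunoassay; efficacy as % of 1 nM apelin-13 response, potency from four-point logistic fit over ≥10 concentrations.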
In general terms: Time-resolved FRET reads energy transfer from a long-lived donor to a nearby acceptor.
The term EC50 denotes the midpoint of the concentration-response curve. `CCS(=O)(=O)c1ccc(C(Oc2ccc(C#N)cc2)C(=O)Nc2nc3cc(OCCN4CCOCC4)c(OC)cc3s2)cc1` (stereo not shown): the half-maximal effective concentration (EC50) is over 500 nM.
With `CCS(=O)(=O)c1ccc(C(OC2CCOCC2)C(=O)Nc2nc3cc(OC)c(OC)cc3s2)cc1` (stereo not shown), the concentration giving a half-maximal response (EC50) is over 500 nM.
Consider `CCS(=O)(=O)c1ccc(C(OCC(C)C)C(=O)Nc2nc3cc(OC)c(OC)cc3s2)cc1` (stereo not shown), for which the EC50 was over 500 nM.
For the compound `CCS(=O)(=O)c1ccc(C(OCCCOC)C(=O)Nc2nc3cc(OC)c(OC)cc3s2)cc1` (stereo not shown), the EC50 was over 500 nM.
As for `COc1cc2nc(NC(=O)C(Oc3ccc(C#N)cc3)c3cccc(S(=O)(=O)C(C)C)c3)sc2cc1OC` (stereo not shown), the EC50 fell in the range of 200 to 500 nM.
With `CCS(=O)(=O)c1ccc(C(Oc2ccc(C#N)cc2)C(=O)Nc2nc3cc4c(cc3s2)OCO4)cc1` (stereo not shown), the EC50 is over 500 nM.
On to `CCS(=O)(=O)c1ccc([C@@H](Oc2ccc(C#N)cc2)C(=O)Nc2nc3cc(OC)c(OC)cc3s2)cc1`, for which the EC50 lay in the range of 100 to 200 nM.
Turning to `COc1cc2nc(NC(=O)C(Oc3ccc(C#N)cc3)c3ccc(C(=O)NCCN(C)C)cc3)sc2cc1OC` (stereo not shown), the EC50 fell in the range of 50 to 100 nM.
With `CCS(=O)(=O)c1ccc(C(Oc2ccc(OCc3ccccc3)cc2)C(=O)Nc2nc3cc(OC)c(OC)cc3s2)cc1` (stereo not shown), the EC50 was over 500 nM.
Take `COc1cc2nc(NC(=O)C(Oc3ccccc3)c3ccc(C#N)cc3)sc2cc1OC` (stereo not shown): the EC50 was over 500 nM.
To `CCS(=O)(=O)c1ccc(C(Oc2ccccc2OC)C(=O)Nc2nc3cc(OC)c(OC)cc3s2)cc1` (stereo not shown) belongs over 500 nM.
In the case of `CCS(=O)(=O)c1ccc(C(CCOC)C(=O)Nc2nc3cc(OC)c(OC)cc3s2)cc1` (stereo not shown), the EC50 is over 500 nM.
As to `COc1cc2nc(NC(=O)C(Oc3ccc(C#N)cc3)c3ccc(S(=O)(=O)N(C)C)cc3)sc2cc1OC` (stereo not shown), the EC50 was under 50 nM.
`COc1cc2nc(NC(=O)C(Oc3ccc(C#N)cc3)c3cccc(S(=O)(=O)Cc4ccccc4)c3)sc2cc1OC` (stereo not shown): the EC50 was under 50 nM.
For `COc1cc2nc(NC(=O)C(Oc3ccc(C#N)cc3)c3ccc(OCCN(C)C)cc3)sc2cc1OC` (stereo not shown), the EC50 is under 50 nM.
As for `CCS(=O)(=O)c1ccc(C2(C(=O)Nc3nc4cc(OC)c(OC)cc4s3)CC2)cc1`, the EC50 was over 500 nM.
For `CCS(=O)(=O)c1ccc(C(Oc2ccc(C#N)cc2)C(=O)Nc2nc3c(OC)ccc(OC)c3s2)cc1` (stereo not shown), the EC50 was in the range of 50 to 100 nM.
With `CCS(=O)(=O)c1ccc(C(Oc2ccc(C#N)cc2)C(=O)Nc2cc3ccccc3[nH]2)cc1` (stereo not shown), the concentration giving a half-maximal response (EC50) is over 500 nM.
To `CCS(=O)(=O)c1ccc(C(Oc2ccc(C(=O)OC)cc2)C(=O)Nc2nc3cc(OC)c(OC)cc3s2)cc1` (stereo not shown) belongs under 50 nM.
As for `CCS(=O)(=O)c1ccc(C(C(=O)Nc2nc3cc(OC)c(OC)cc3s2)C(C)C)cc1` (stereo not shown), the EC50 fell in the range of 200 to 500 nM.
To `CCS(=O)(=O)c1ccc(C(Oc2ccc(C#N)cc2F)C(=O)Nc2nc3cc(OC)c(OC)cc3s2)cc1` (stereo not shown) belongs under 50 nM.
To `COc1cc2nc(NC(=O)C(Oc3ccc(OCCN4CCOCC4)cc3)c3ccc(C#N)cc3)sc2cc1OC` (stereo not shown) belongs 50 to 100 nM; to `CCN(CC)c1ccc2sc(NC(=O)C(Oc3ccc(C#N)cc3)c3ccc(S(=O)(=O)CC)cc3)nc2c1` (stereo not shown), over 500 nM; to `COCCOc1ccc(C(Oc2ccc(C#N)cc2)C(=O)Nc2nc3cc(OC)c(OC)cc3o2)cc1` (stereo not shown), under 50 nM.
To `COc1cc2nc(NC(=O)C(Oc3ccc(C#N)cc3)c3ccc(OC(C)C)cc3)sc2cc1OC` (stereo not shown) belongs under 50 nM; to `COc1cc2nc(NC(=O)C(Oc3ccc(C#N)cc3)c3ccc(C(=O)NCCN4CCCCC4)cc3)sc2cc1OC` (stereo not shown), under 50 nM.
In the case of `CCS(=O)(=O)c1ccc(C(C(=O)Nc2nc3cc(OC)c(OC)cc3s2)N2CCOCC2)cc1` (stereo not shown), the EC50 was over 500 nM.
Take `CCS(=O)(=O)c1ccc(C(OCC2CCCCC2)C(=O)Nc2nc3cc(OC)c(OC)cc3s2)cc1` (stereo not shown): the EC50 was over 500 nM.
On to `COc1cc2nc(NC(=O)C(Oc3ccc(C#N)cc3)c3ccc(C#N)cc3)sc2cc1OC` (stereo not shown), for which the EC50 was under 50 nM.
For the compound `CCS(=O)(=O)c1ccc(C(Oc2ccc(C3CCCC3)cc2)C(=O)Nc2nc3cc(OC)c(OC)cc3s2)cc1` (stereo not shown), the EC50 is 200 to 500 nM.
As for `CCS(=O)(=O)c1ccc(C(OC2CCCC2)C(=O)Nc2nc3cc(OC)c(OC)cc3s2)cc1` (stereo not shown), the EC50 is over 500 nM.
